Structures can show the parent of a compound that is named as a salt.
Test system: Mais LL (Liberty-Link-Mais, maize tolerant or resistant to glufosinate-ammonium)
Experiment: Field trial, damage to transgenic maize (tolerance by crop plants)
Format: in vivo
Details: for Mais LL: application 3-leaf stage
Description: Transgenic maize plants with a resistance to one or more herbicides (A) together with typical weed plants were grown in the open on 2×5 m plots under natural field conditions; alternatively, weed infestation occurred naturally when the maize plants were grown.
The damage to, and the development of, all aerial parts of the plants was recorded.
Abbreviations generally used in the tables: • g of a.s./ha=gram of active substance (100% active substance) per hectare • E^A=Total of the herbicidal effects of the individual applications • E^C Colby's expected value (cf. scoring in Table 1) • “Mais LL”=®Liberty-Link-Mais, maize which is tolerant or resistant to glufosinate-ammonium, […]

For `CP(=O)(O)CCC(N)C(=O)O` (stereo not shown) [(A1.2), glufosinate-monoammonium salt], the “Mais LL” value (100 g of a.s./ha, Table 11, head names no quantity) was 0, the “Damage to Mais LL in %” value (100 g of a.s./ha, application 6-leaf stage) was 0% and the “Damage to Mais LL in %” value (200 g of a.s./ha, application 2-4-leaf stage) was 3%. The “Mais LL” value (200 g of a.s./ha, Table 11, head names no quantity) was 0, the “Mais LL” value (200 g of a.s./ha, Table 14, head names no quantity) was 0 and the “Damage to Mais LL in %” value (200 g of a.s./ha, application 5-6-leaf stage) was 2%. For the same compound, the “Damage to Mais LL in %” value (200 g of a.s./ha, application 6-leaf stage) was 0%, the “Damage to Mais LL in %” value (300 g of a.s./ha, application 2-4-leaf stage) was 2% and the “Mais LL” value (300 g of a.s./ha, Table 11, head names no quantity) was 0. For the same compound, the “Damage to Mais LL in %” value (300 g of a.s./ha, application 4-leaf stage) was 0%, the “Damage to Mais LL in %” value (400 g of a.s./ha, application 2-4-leaf stage) was 5% and the “Mais LL” value (400 g of a.s./ha, Table 14, head names no quantity) was 8. The “Damage to Mais LL in %” value (400 g of a.s./ha, application 5-6-leaf stage) was 4%, the “Damage to Mais LL in %” value (400 g of a.s./ha, application 6-leaf stage) was 0% and the “Damage to Mais LL in %” value (600 g of a.s./ha, application 2-4-leaf stage) was 3%. The “Mais LL” value (600 g of a.s./ha, Table 11, head names no quantity) was 0, the “Damage to Mais LL in %” value (600 g of a.s./ha, application 4-leaf stage) was 0% and the “Damage to Mais LL in %” value (600 g of a.s./ha, application 5-6-leaf stage) was 3%. For the same compound, the “Damage to Mais LL in %” value (1000 g of a.s./ha, application 2-4-leaf stage) was 4%.

Reference: patent US8772199B2, “Herbicidal compositions for tolerant or resistant maize crops” (Bayer Intellectual Property GmbH, priority 1998, dated 2014)
